Patent US20020182694A1, “Novel gene and polypeptide which opposes the Fas pathway” (priority 2001, published 2002)

Key:
HeLa cells [1] = assay: Fas induced killing of HeLa cells treated with pharmacological agents, count of viable trypan blue excluding cells; type: cell-based, human; conditions: for effect on Fas induced PCD of HeLa cells, in words (viable cell count): anti-Fas antibody treated HeLa cells, NAC: 50 ng/ml anti-Fas, 5 days, FIG. 6, 8E, 8G, 8H
Procedure: HeLa cells, 1.6×10^5 cells/well were plated in 6 wells plates. 20-24 hours later cells were treated with various concentrations of sulfinpyrazone (Sigma/Aldrich) in 1% DMSO for 15 minutes prior to the addition of 200 ng/ml anti-Fas antibody (clone CH-11, Kamiya Biomedical Company). The number of viable, trypan blue (Gibco/BRL) excluding cells that remained attached to the plate following rinsing with PBS was counted 17 hours post treatment. […]

HeLa cells [2] = assay: Apoptotic index (DAPI staining) of HeLa cells treated with anti-Fas antibody; type: cell-based, human
Procedure: To generate HeLa cells that over-express Nrf2, the human Nrf2 cDNA (Moi et al. 1994) was cloned into the retrovirus expression vector pBABEpuro (Morgenstern and Land 1990) by standard methods. The plasmid was transiently transfected into […] and virus was collected at 36, 48, 60 and 72 hours post transfection. At each time point, freshly collected virus stock was filtered through a […], mixed with […] polybrene (Sigma/Aldrich) and applied to HeLa cells. 24 hours after the last addition of the virus, the cells were subjected to selection in […] Puromycin (Sigma/Aldrich). The pool of Puromycin resistant colonies was expanded. […] Apoptotic index was calculated as the ratio of number of dead cells (containing condensed and/or fragmented chromosomes) to the total number of cells. Average apoptotic index calculated from ten fields from duplicate wells is presented.
For bioassays, HeLa cells, at 8.3×10^4 cells/well were plated in 12 wells plates. […] 20 hours later the apoptotic index of treated cells was determined as described for the Nrf2 bioassays.
HeLa cells, 1.6×10^5 cells/well were plated in 6 wells plates. […] The number of viable, trypan blue (Gibco/BRL) excluding cells that remained attached to the plate following rinsing with PBS was counted 17 hours post treatment. Alternatively, the apoptotic index of treated cells was determined as described for the Nrf2 bioassays.

[3] = target: Fas/CD95/Apo-1 on HeLa cells (human) (UniProt P25445); assay: cell-based or functional assay
Chain of UniProt P25445 (P25445 26-335): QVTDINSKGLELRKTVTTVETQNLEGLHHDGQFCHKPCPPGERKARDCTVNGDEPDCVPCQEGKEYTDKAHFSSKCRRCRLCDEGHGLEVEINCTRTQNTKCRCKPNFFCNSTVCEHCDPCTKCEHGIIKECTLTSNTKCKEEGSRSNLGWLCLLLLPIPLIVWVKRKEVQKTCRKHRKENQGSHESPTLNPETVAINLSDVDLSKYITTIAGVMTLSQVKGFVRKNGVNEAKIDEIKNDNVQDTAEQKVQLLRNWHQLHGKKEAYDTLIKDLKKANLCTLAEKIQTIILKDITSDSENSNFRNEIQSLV

## NCCNS(=O)(=O)c1ccc(Cl)c2ccncc12 [CKI-7, N-(2-aminoethyl)-5-chloroisoquinoline-8-sulfonamide]
HeLa cells [1]; CKI-7 in 1% DMSO added an hour before 200 ng/ml anti-FAS antibody, counted 17 hours post treatment, FIG. 6
  fold more sensitive to FAS induced PCD than the untreated cells: 3.9 fold
HeLa cells [1]
  effect on Fas induced PCD of HeLa cells, in words (viable cell count): sensitizes

## O=c1oc2ccccc2c(O)c1Cc1c(O)c2ccccc2oc1=O [Dicumarol]
HeLa cells [1]; 100 uM Dicumarol, 200 ng/ml anti-Fas antibody, counted 17 hours post treatment, FIG. 8E
  fold more sensitive to Fas induced killing compared to cells treated with vehicle, measured by the number of viable cells: 2.8 fold
HeLa cells [1]
  effect on Fas induced PCD of HeLa cells, in words (viable cell count): sensitizes
HeLa cells [2]; 100 uM Dicumarol, 200 ng/ml anti-Fas antibody, vehicle (0 uM) approximately 25%, FIG. 8F
  killing (apoptotic index) in cells treated with anti-Fas antibody and Dicumarol: approximately 100%
HeLa cells [2]; anti-Fas antibody treated HeLa cells, FIG. 8C, 8D, 8F legends
  effect on Fas induced PCD of HeLa cells, in words (apoptotic index): sensitizes

## CC(=O)N[C@@H](CS)C(=O)O [NAC, N-acetyl Cysteine]
HeLa cells [1]
  effect on Fas induced PCD of HeLa cells, in words (viable cell count): strongly protects
HeLa cells [1]; listed as N-acetyl cysteine
  effect on Fas induced PCD of HeLa cells, in words (viable cell count): protects

## O=C1C(CC[S+]([O-])c2ccccc2)C(=O)N(c2ccccc2)N1c1ccccc1 (stereo not shown) [sulfinpyrazone]
HeLa cells [1]; 2 mM sulfinpyrazone, 200 ng/ml anti-Fas antibody, counted 17 hours post treatment, FIG. 8G
  sensitization to Fas induced killing compared to treatment with vehicle alone: approximately 4 fold

## Anti-Fas antibody (clone CH-11, Kamiya Biomedical Company, catalog number MC-060)
[3]
  apoptotic index (DAPI staining), HeLa cells infected with vector alone (Control-1): 89%
  apoptotic index (DAPI staining), HeLa cells infected with vector alone (Control-2): 87%
  apoptotic index (DAPI staining), HeLa cells with vehicle: 25%
  apoptotic index (DAPI staining), HeLa cells with vehicle (0 uM Dicumarol): 25%
